# According to patent publication US20260226026A1, “COMPOUND AS CTPS1 INHIBITOR” (Hangzhou Innogate Pharma Co., Ltd., priority 2023, published 2026):
# Test system: not listed separately
# Assay: in vivo
# Set-up: species or system SD rats
# Settings: male, SD, rat, po, 2 mg/kg
# Experimental: Instrumentation: SCIEX Triple Quad 6500+ triple quadrupole liquid chromatography-mass spectrometry system (LC-MS/MS), operating software is Analyst 1.7.2 (Applied Biosystems, USA); ExionLC liquid chromatography system; Microsoft Excel was used for data calculation and processing. Pharmacokinetic parameters were calculated using the statistical moment method with WinNonlin 8.2 software. Key kinetic parameters included Tmax, T1/2, Cmax, AUC0-24 h etc. Column: Synergi 4 μm Fusion-RP 80 Å Luna C18 2 mm*50 mm, 4 μm; Column temperature: 40° C.; Mobile phase A: Water (0.1% formic acid); Mobile phase B: Acetonitrile; Flow rate: 0.8 mL/min; Gradient elution is adopted, the elution gradient is 0.10 min: 15% B; 1.60 min: 95% B; 1.90 min: 95% B; 1.91 min: 15% B; 2.20 min: 15% B. Injection volume: 1 μL.
# Animals: 3 male SD rats with a weight range of 200-220 g were purchased and kept in the laboratory of the Experimental Animal Center for 3 days and then used. They were fasted for 12 hours predose and 4 hours after dosing. Drinking water was free during the test. After the rats were gavage, blood samples were taken according to the established time point.
# Solvent: 0.4% ethanol+0.4% Tween80+99.2% (0.5% methylcellulose M450). Preparation of the solution for intragastric administration: Compounds were accurately weighed and added to the solvent. The mixture was then subjected to vortex mixing and sonication until a homogeneous suspension was achieved, thereby preparing medicinal solutions of the desired concentrations.
# Compound samples: Typically, multiple structurally analogous compounds (with molecular weights differing by more than 2 units) were accurately weighed and administered together (cassette PK). This approach allows for the simultaneous screening of multiple compounds and comparison of their oral absorption rates. Single compound administration was also employed to study the pharmacokinetics of drug samples in rats.
# After intragastric administration, blood was collected from the jugular vein at 0.25, 0.5, 1, 2, 4, 8, 10 and 24 hours. Transfer 20 μL of plasma sample (for blank samples and internal standard blank samples, add 20 μL of blank plasma) to a 1.5 mL centrifuge tube, add 200 μL of internal standard solution (50% methanol in acetonitrile (concentration 100 ng/mL)) (for Double blank samples, add 200 μL of 50% methanol in acetonitrile solution). Vortex the samples for 5 minutes, then centrifuge at 14000 rpm and 4° C. for 5 minutes. Transfer 80 μL and add to 80 μL of water, mix uniformly, and submit for LC-MS/MS analysis.
# The compounds were accurately weighed to prepare different concentrations, and quantitative analysis on mass spectrometry was performed to establish a standard curve, and then the concentration of the above-mentioned compound in the plasma was tested to obtain its concentration at different time points. All measurement data were collected and processed by relevant software, and the statistical moment method was used to calculate the pharmacokinetic parameters (mainly including kinetic parameters Tmax, T1/2, Cmax, AUC0-24 h etc).
AUC(0-t),Cmax,Tmax,half-life,Structure (SMILES)
62.7 ng·h/mL,14.5 ng/mL,4 h,1.56 h,CCOc1cncc(-c2ccc(NC(=O)C3(c4ccnc(NS(=O)(=O)C5CC5)n4)CCC(=C(C)C4COC4)CC3)nc2)n1 (stereo not shown) [Compound 51]

# Same assay, conditions: male, SD, rat, po, 3 mg/kg
AUC(0-t),Cmax,Tmax,half-life,Structure (SMILES)
417 ng·h/mL,359 ng/mL,0.25 h,1.73 h,CCOc1cncc(-c2ccc(NC(=O)C3(c4ccnc(NS(=O)(=O)C5CC5)n4)CCC(=CCO)CC3)nc2)n1 (stereo not shown) [Compound 5]

# Test system: Jurkat cells
# Assay: Inhibition of Jurkat cell proliferation (CellTiter-Glo, 72 hours)
# Format: cell-based
# Settings: Homo sapiens; Jurkat cells, 72 hours, CellTiter-Glo; read-out: Jurkat (IC50)
# Experimental: Select Jurkat cells in good growth condition and digest them with trypsin. Add fresh culture medium, mix thoroughly, and centrifuge at 1000 rpm for 5 minutes. Seed the cells into a 96-well plate at a density of 10,000 cells per well, and incubate overnight in a 37° C. incubator. On the following day, take out of the culture plate and treat the cells with compounds prepared in a five-fold serial dilution. Return the plate to the 37° C. incubator and continue incubation for 72 hours.
# After incubation, bring out the cell culture plate and equilibrate it to room temperature. Add 100 μL of CellTiter-Glo reagent to each well, shake in the dark for 2 minutes, and incubate for 10 minutes. Measure the luminescence using an Enspire plate reader. Calculate the inhibition rate using the following formula: Inhibition rate (%)=(1−(RLU_compound−RLU_blank)/(RLU_DMSO−RLU_blank))×100%. Plot the dose-response curve and calculate the IC50 value using XLFit.
row,IC50,Structure (SMILES)
1,< 50 nM,CCOc1cncc(-c2ccc(NC(=O)C3(c4ccnc(NS(=O)(=O)C5CC5)n4)CCC(=C(F)CN4CCOCC4)CC3)nc2)n1 (stereo not shown) [Compound 54]
2,< 30 nM,CCOc1cncc(-c2ccc(NC(=O)C3(c4ccnc(NS(=O)(=O)C5CC5)n4)CCC(=Cc4ccccn4)CC3)nc2)n1 (stereo not shown) [Compound 38]
3,< 30 nM,CCOc1cncc(-c2ccc(NC(=O)C3(c4ccnc(NS(=O)(=O)C5CC5)n4)CCC(=C(C)F)CC3)nc2)n1 (stereo not shown) [Compound 37]
4,< 30 nM,CCOc1cncc(-c2ccc(NC(=O)C3(c4ccnc(NS(=O)(=O)C5CC5)n4)CCC(=C(C)C4COC4)CC3)nc2)n1 (stereo not shown) [Compound 51]
5,< 50 nM,CCOc1cncc(-c2ccc(NC(=O)C3(c4ccnc(NS(=O)(=O)C5CC5)n4)CCC(=C(F)F)CC3)c(F)c2)n1 (stereo not shown) [Compound 65]
6,< 50 nM,CCOc1cncc(-c2ccc(NC(=O)C3(c4ccnc(NS(=O)(=O)C5CC5)n4)CCC(=Cc4cncnc4)CC3)nc2)n1 (stereo not shown) [Compound 56]
7,< 30 nM,CCOc1cncc(-c2ccc(NC(=O)C3(c4ccnc(NS(=O)(=O)C5CC5)n4)CCN(c4cccnc4)CC3)nc2)n1 [Compound 25]
8,< 50 nM,CCOc1cncc(-c2ccc(NC(=O)C3(c4ccnc(NS(=O)(=O)C5CC5)n4)CCC(=C(F)C#N)CC3)nc2)n1 (stereo not shown) [Compound 49]
9,< 200 nM,CCOc1cncc(-c2ccc(NC(=O)C3(c4ccnc(NS(=O)(=O)C5CC5)n4)CCN(c4ccncc4)CC3)nc2)n1 [Compound 35]
10,< 1000 nM,CCOc1cncc(-c2ccc(NC(=O)C(=C3CCOCC3)c3ccnc(NS(=O)(=O)C4CC4)n3)nc2)n1 [Compound 33]
11,< 50 nM,CCOc1cncc(-c2ccc(NC(=O)C3(c4ccnc(NS(=O)(=O)C5CC5)n4)CCC(=Cc4ccoc4)CC3)nc2)n1 (stereo not shown) [Compound 42]
12,< 100 nM,CCOc1cncc(-c2ccc(NC(=O)C3(c4ccnc(NS(=O)(=O)C5CC5)n4)CCC(=CCN)CC3)nc2)n1 (stereo not shown) [Compound 41]
13,< 15 nM,CCOc1cncc(-c2ccc(NC(=O)C3(c4ccnc(NS(=O)(=O)C5CC5)n4)CCC(=CC4CC(O)C4)CC3)nc2)n1 (stereo not shown) [Compound 59]
14,< 100 nM,CCOc1cncc(-c2ccc(NC(=O)C3(c4ccnc(NS(=O)(=O)C5CC5)n4)CCC(=Cc4ccsc4)CC3)nc2)n1 (stereo not shown) [Compound 53]
15,< 50 nM,CCOc1cncc(-c2ccc(NC(=O)C3(c4ccnc(NS(=O)(=O)C5CC5)n4)CCC4(CC3)CC(=C(F)F)C4)nc2)n1 (stereo not shown) [Compound 64]
16,< 50 nM,CCOc1cncc(-c2ccc(NC(=O)C3(c4nccc(NS(=O)(=O)C5CC5)n4)CCC(=C(F)F)CC3)nc2)n1 (stereo not shown) [Compound 66]
17,< 200 nM,CCOc1cncc(-c2ccc(NC(=O)C3(c4ccnc(NS(=O)(=O)C5CC5)n4)CCC(=CC(N)=O)CC3)nc2)n1 (stereo not shown) [Compound 40]
18,< 200 nM,CCOc1cncc(-c2cnc(NC(=O)C3(c4ccnc(NS(=O)(=O)C5CC5)n4)CCC(=C(F)F)CC3)c(F)c2)n1 (stereo not shown) [Compound 71]

# Continued, compound first:
row,Structure (SMILES),IC50
1,CCOc1cncc(-c2ccc(NC(=O)C3(c4ccnc(NS(=O)(=O)C5CC5)n4)CCC(=C(F)C(C)=O)CC3)nc2)n1 (stereo not shown) [Compound 61],< 50 nM
2,CCOc1cncc(-c2ccc(NC(=O)C3(c4ccnc(NS(=O)(=O)C5CC5)n4)CCC(=C(C)C)CC3)nc2)n1 (stereo not shown) [Compound 2],< 50 nM
3,CCOc1cncc(-c2ccc(NC(=O)C3(c4csc(NS(=O)(=O)C5CC5)n4)CCC(=C(F)F)CC3)nc2)n1 (stereo not shown) [Compound 73],< 30 nM
4,CCOC(=O)C(F)=C1CCC(C(=O)Nc2ccc(-c3cncc(OCC)n3)cn2)(c2ccnc(NS(=O)(=O)C3CC3)n2)CC1 (stereo not shown) [Compound 43],< 50 nM
5,CCOc1cncc(-c2ccc(NC(=O)C3(c4ccnc(NS(=O)(=O)C5CC5)n4)CCC(=CC#N)CC3)nc2)n1 (stereo not shown) [Compound 8],< 15 nM
6,C=C1CCC(C(=O)Nc2ccc(-c3cncc(OCC)n3)cn2)(c2ccnc(NS(=O)(=O)C3CC3)n2)CC1 [Compound 9],< 50 nM
7,CCOc1cncc(-c2ccc(NC(=O)C3(c4ccnc(N(C)S(=O)(=O)C5CC5)n4)CCC(=CCO)CC3)nc2)n1 (stereo not shown) [Compound 6],< 100 nM
8,O=C(Nc1ccc(-c2cncc(OC3CC(=C(F)F)C3)n2)cn1)C1(c2ccnc(NS(=O)(=O)C3CC3)n2)CCOCC1 (stereo not shown) [Compound 7],< 750 nM
9,CCOc1cncc(-c2ccc(NC(=O)C3(c4ccnc(NS(=O)(=O)C5CC5)n4)CCC(=CCO)CC3)nc2)n1 (stereo not shown) [Compound 5],< 15 nM
10,CCOc1cncc(-c2ccc(NC(=O)C3(c4ccnc(NS(=O)(=O)C5CC5)n4)CCC(=CCc4ccccc4)CC3)nc2)n1 (stereo not shown) [Compound 21],< 1000 nM
11,CCOc1cncc(-c2ccc(NC(=O)C3(c4ccnc(NS(=O)(=O)C5CC5)n4)CC(=CF)C3)nc2)n1 (stereo not shown) [Compound 20],< 200 nM
12,CCOc1cncc(-c2ccc(NC(=O)C3(c4ccnc(NS(=O)(=O)C5CC5)n4)CCC(=CC(C)=O)CC3)nc2)n1 (stereo not shown) [Compound 60],< 30 nM
13,CCOc1cncc(-c2ccc(NC(=O)C3(c4ccnc(NS(=O)(=O)C5CC5)n4)CCC(=CCOC)CC3)nc2)n1 (stereo not shown) [Compound 17],< 200 nM
14,CCOc1cncc(-c2ccc(NC(=O)C3(c4ccnc(NS(=O)(=O)C5CC5)n4)CCC(=CC(C)(C)O)CC3)nc2)n1 (stereo not shown) [Compound 57],< 50 nM
15,CCOc1cncc(-c2cnc(C(=O)NC3(c4ccnc(NS(=O)(=O)C5CC5)n4)CCC(=C(F)F)CC3)s2)n1 (stereo not shown) [Compound 72],< 200 nM

# Biological target: T1, hCTPS1 enzyme (Homo sapiens, UniProt P17812)
# T1 sequence (P17812 1-591): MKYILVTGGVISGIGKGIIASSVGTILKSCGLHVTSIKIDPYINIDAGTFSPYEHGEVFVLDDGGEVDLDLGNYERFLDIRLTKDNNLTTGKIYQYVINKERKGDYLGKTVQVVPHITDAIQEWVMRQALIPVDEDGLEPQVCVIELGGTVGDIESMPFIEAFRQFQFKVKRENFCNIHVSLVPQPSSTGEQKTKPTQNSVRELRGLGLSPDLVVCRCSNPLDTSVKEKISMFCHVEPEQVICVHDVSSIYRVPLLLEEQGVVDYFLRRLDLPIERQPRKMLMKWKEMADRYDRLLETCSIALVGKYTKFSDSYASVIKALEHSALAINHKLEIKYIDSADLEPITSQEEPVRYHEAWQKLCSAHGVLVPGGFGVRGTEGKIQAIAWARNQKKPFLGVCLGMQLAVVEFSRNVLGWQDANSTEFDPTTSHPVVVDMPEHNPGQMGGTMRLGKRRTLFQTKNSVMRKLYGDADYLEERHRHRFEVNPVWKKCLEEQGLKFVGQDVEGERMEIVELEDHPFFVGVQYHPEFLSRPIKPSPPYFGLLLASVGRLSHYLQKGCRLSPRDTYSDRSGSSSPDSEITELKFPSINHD
# Assay: Inhibition of CTPS1 enzyme activity (ADP-Glo method)
# Format: biochemical
# Settings: hCTPS1, 90 min reaction at 25° C.
# Experimental: The enzyme activity of CTPS1 was tested using the ADP-Glo method. Compounds were serially diluted in DMSO with 3-fold gradients across ten concentrations. Transfer 0.1 μL of diluted compound to a 384-well plate, centrifuge at 1000 rpm for 1 min. Add 2.5 μL of hCTPS1 enzyme working solution, centrifuge at 1000 rpm for 1 min, and incubate at 25° C. for 10 min. Add 2.5 μL of ATP & UTP solution and incubate at 25° C. for 10 min. Add 5 μL of substrate solution to initiate the reaction and incubate at 25° C. for 90 min. Add 10 μL of ADP-Glo solution to the 384-well plate, centrifuge at 1000 rpm for 1 min, incubate at 25° C. for 40 min, add 20 μL of detection solution, centrifuge at 1000 rpm for 1 min, and incubate at 25° C. for 60 min. […] were read using a BMG microplate reader. Inhibition rate (%) was calculated as follows: Inhibition rate (%)=[(DMSO control well signal−Compound well signal)/(DMSO control well signal−Blank control well signal)]×100%. IC50 values for compounds were analyzed by nonlinear regression in XLFit 5.5.0 software using the formula: Y=Bottom+(Top−Bottom)/(1+10^((LogIC50−X)*HillSlope)) where Y is the inhibition rate and X is the log value of compound concentration.
row,IC50,Structure (SMILES)
1,< 50 nM,CCOc1cncc(-c2ccc(NC(=O)C3(c4ccnc(NS(=O)(=O)C5CC5)n4)CCC(=C(F)CN4CCOCC4)CC3)nc2)n1 (stereo not shown) [Compound 54]
2,< 200 nM,CCOc1cncc(-c2ccc(C(=O)NC3(c4ccnc(NS(=O)(=O)C5CC5)n4)CCC(=C(F)F)CC3)nc2)n1 (stereo not shown) [Compound 70]
3,< 25 nM,CCOc1cncc(-c2ccc(NC(=O)C3(c4ccnc(NS(=O)(=O)C5CC5)n4)CCC(=C(C)F)CC3)nc2)n1 (stereo not shown) [Compound 37]

# Second part, the compound before the results:
row,Structure (SMILES),IC50
1,CCOc1cncc(-c2ccc(NC(=O)C3(c4ccnc(NS(=O)(=O)C5CC5)n4)CCC(=C(C)C)CC3)nc2)n1 (stereo not shown) [Compound 2],< 50 nM
2,CCOc1cncc(-c2ccc(NC(=O)C3(c4ccnc(NS(=O)(=O)C5CC5)n4)CCC(=CC#N)CC3)nc2)n1 (stereo not shown) [Compound 8],< 50 nM
